We go through 16 compounds from ChEMBL document CHEMBL1156089, “Anthranilic sulfonamide CCK1/CCK2 dual receptor antagonists I: discovery of CCKR1 selectivity in a previously CCKR2-selective lead series” (Bioorg Med Chem Lett, 2009).

In experiment [1] the target is T1, Cholecystokinin receptor type A (Homo sapiens, UniProt P32238).
T1 sequence (P32238 whole entry): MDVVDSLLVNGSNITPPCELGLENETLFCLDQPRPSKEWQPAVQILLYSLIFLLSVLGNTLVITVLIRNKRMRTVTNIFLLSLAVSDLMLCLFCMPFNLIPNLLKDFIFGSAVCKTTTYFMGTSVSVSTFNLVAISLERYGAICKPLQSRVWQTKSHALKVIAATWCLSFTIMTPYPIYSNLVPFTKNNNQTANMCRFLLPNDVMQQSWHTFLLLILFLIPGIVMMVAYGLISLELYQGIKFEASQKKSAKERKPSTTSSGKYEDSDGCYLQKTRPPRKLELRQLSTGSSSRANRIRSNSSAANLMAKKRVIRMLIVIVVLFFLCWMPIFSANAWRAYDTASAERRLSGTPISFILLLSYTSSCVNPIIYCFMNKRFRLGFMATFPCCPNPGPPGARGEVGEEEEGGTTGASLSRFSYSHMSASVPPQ
Kind of experiment: Displacement of [125I]-CCK-8S from CCK1R after 100 mins by liquid scintillation counting. (In general: Displacement assays read how much labelled ligand stays bound in the presence of the test substance.)

Experiment [2] concerns the target T2, Gastrin/cholecystokinin type B receptor (Homo sapiens, UniProt P32239).
T2 sequence (P32239 whole entry): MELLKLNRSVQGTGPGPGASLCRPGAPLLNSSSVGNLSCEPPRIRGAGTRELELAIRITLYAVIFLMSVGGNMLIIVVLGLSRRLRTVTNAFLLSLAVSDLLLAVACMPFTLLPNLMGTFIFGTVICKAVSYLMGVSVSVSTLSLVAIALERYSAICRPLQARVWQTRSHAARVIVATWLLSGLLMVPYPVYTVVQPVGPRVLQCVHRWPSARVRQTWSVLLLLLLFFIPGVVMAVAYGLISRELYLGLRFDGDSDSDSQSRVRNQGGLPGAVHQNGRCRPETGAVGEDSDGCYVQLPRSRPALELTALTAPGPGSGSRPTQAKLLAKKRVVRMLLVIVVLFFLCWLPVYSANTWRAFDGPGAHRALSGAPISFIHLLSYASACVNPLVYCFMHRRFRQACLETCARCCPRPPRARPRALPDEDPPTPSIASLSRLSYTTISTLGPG
Kind of experiment: Displacement of [125I]-CCK-8S from CCK2R after 100 mins by liquid scintillation counting.

By Ki is commonly meant a dissociation constant, usually derived from enzyme kinetics or from competition with a known ligand. Read a high Ki as a looser hold on the target.

In the case of `O=C(N[C@H](Cc1ccc(Cl)cc1)C(=O)O)c1ccc(Cl)cc1NS(=O)(=O)c1cccc2nsnc12`, the Ki in experiment [1] was 316 nM; in experiment [2] it was 631 nM. For `O=C(NCCc1ccccc1)c1ccc(Cl)cc1NS(=O)(=O)c1cccc2nsnc12`, in that order: 158 nM and 6310 nM.

With `O=C(NCCc1ccccc1)c1ccc(Br)cc1NS(=O)(=O)c1cccc2nsnc12`, the results for the Ki in experiment [1] and in experiment [2] were 398 nM and 631 nM, respectively.

As for `CN(CCc1ccccc1)C(=O)c1ccc(Cl)cc1NS(=O)(=O)c1cccc2nsnc12`, the figures for the Ki in experiment [1] and in experiment [2] were 3980 nM and 316 nM, respectively. For the compound `C[C@H](c1ccc(Cl)c(Cl)c1)[C@@H](NC(=O)c1ccc(Cl)cc1NS(=O)(=O)c1cccc2nsnc12)C(=O)O`, the inhibitory constant (Ki) in experiment [1] was 200 nM; in experiment [2], 1580 nM. With `O=C(N[C@H](C(=O)O)C(c1ccc(Cl)cc1)c1ccc(Cl)cc1)c1ccc(Cl)cc1NS(=O)(=O)c1cccc2nsnc12`, the Ki in experiment [1] was > 10000 nM. In the case of `O=C(NCC(c1ccc(Cl)cc1)c1ccc(Cl)cc1)c1ccc(Cl)cc1NS(=O)(=O)c1cccc2nsnc12`, in experiment [2], the Ki is > 10000 nM. In the case of `O=C(N[C@@H](Cc1ccccc1)C(=O)O)c1ccc(Cl)cc1NS(=O)(=O)c1cccc2nsnc12`, the values for the Ki in experiment [1] and in experiment [2] were 3980 nM and 79.4 nM, respectively.

`CC(CNC(=O)c1ccc(Cl)cc1NS(=O)(=O)c1cccc2nsnc12)c1ccc(Cl)cc1` (racemic): in experiment [1], the Ki is 100 nM. This counts as sub-micromolar. Regarding `O=C(NCCc1ccc(Cl)cc1)c1ccc(Cl)cc1NS(=O)(=O)c1cccc2nsnc12`, the values for the inhibition constant (Ki) in experiment [1] and in experiment [2] were 1000 nM and > 10000 nM, respectively.

On to `O=C(NCCCc1ccccc1)c1ccc(Cl)cc1NS(=O)(=O)c1cccc2nsnc12`, for which the Ki was 2000 nM in experiment [1] and 1000 nM in experiment [2].

With `O=C(NCCc1ccc(Cl)c(Cl)c1)c1ccc(Cl)cc1NS(=O)(=O)c1cccc2nsnc12`, the values for the Ki in experiment [1] and in experiment [2] were 79.4 nM and 7940 nM, respectively. For the compound `O=C(NCc1ccccc1)c1ccc(Cl)cc1NS(=O)(=O)c1cccc2nsnc12`, the inhibition constant (Ki) in experiment [1] was > 10000 nM. As for `O=C(N[C@H](Cc1ccccc1)C(=O)O)c1ccc(Cl)cc1NS(=O)(=O)c1cccc2nsnc12`, the Ki is 3160 nM in experiment [1] and 158 nM in experiment [2].

Consider `O=C(N[C@@H](Cc1ccc(Cl)cc1)C(=O)O)c1ccc(Cl)cc1NS(=O)(=O)c1cccc2nsnc12`, for which the inhibitory constant (Ki) is 2000 nM in experiment [1] and 63.1 nM in experiment [2]. Compound `CC(C)(c1ccc(Cl)cc1)[C@H](NC(=O)c1ccc(Cl)cc1NS(=O)(=O)c1cccc2nsnc12)C(=O)O` showed a Ki in experiment [2] of 1000 nM.
